Where a name gives a salt, the structure may show the parent alone. Read-outs that look alike come from different tables or passages of the source. Bounds are passed on as bounds.

The target of the assay is full-length human PRMT8 isoform 1 (Homo sapiens, UniProt Q9NR22). Put plainly: PRMT8 Biochemical Assay (3H-SAM Flashplate, peptide substrate). The procedure, abridged: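 Full-length human PRMT8 (1.5 nM, E. coli-expressed, GST removed) preincubated 30 min at room temperature with compound, then reacted with 50 nM 3H-SAM plus 550 nM cold SAM and 150 nM biotinylated H4 31-45 peptide in 20 mM Bicine pH 7.6, 1 mM TCEP, 0.005% BSG, 0.002% Tween 20, 2% DMSO. Quenched with 400 uM cold SAM; labelled peptide captured on streptavidin Flashplate, % inhibition versus 1 mM SAH and DMSO controls fitted to 4- or 3-parameter curve.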
Sequence of full-length human PRMT8 isoform 1 (Q9NR22 whole entry, canonical isoform): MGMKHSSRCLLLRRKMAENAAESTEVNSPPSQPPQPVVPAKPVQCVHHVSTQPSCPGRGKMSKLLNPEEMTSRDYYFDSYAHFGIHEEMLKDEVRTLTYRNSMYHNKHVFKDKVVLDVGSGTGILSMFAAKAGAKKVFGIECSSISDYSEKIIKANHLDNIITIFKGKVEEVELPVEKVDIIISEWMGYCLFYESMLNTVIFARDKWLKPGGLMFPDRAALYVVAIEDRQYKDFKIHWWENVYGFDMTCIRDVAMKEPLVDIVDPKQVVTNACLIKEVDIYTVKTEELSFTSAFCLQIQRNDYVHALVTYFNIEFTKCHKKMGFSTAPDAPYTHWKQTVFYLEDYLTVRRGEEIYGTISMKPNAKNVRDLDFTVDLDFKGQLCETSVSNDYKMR

[1] abbreviates: read-out: Biochemical IC50 PRMT8.
The mark [2] stands for this setting: single experiment or average of multiple experiments, read-out: Biochemical IC50 PRMT8.

Turning to `CNCCN(C)Cc1c[nH]nc1[C@H]1CC[C@]2(CC1)CC(C)(C)CO2` [Compound 134, methyl[2-(methylamino)ethyl]([3-[(5r,8r)-3,3-dimethyl-1-oxaspiro[4.5]decan-8-yl]-1H-pyrazol-4-yl]methyl)amine], the IC50 by setting is: (Biochemical IC50 PRMT8) less than 100 nM; (Biochemical IC50 PRMT8, single experiment or average of multiple experiments) 24.8 nM.

Regarding `CNCCN(C)Cc1c[nH]nc1[C@H]1CCC(C)(C)[C@@H](C(=O)NCCOC)C1` [Compound 268], the IC50 is 101 to 1000 nM under setting [1] and 210 nM under setting [2].

`CNCCN(C)Cc1c[nH]nc1[C@@H]1CCC(C)(C)[C@@H](C(=O)NCCOC)C1` [Compound 269]: the IC50 is, setting by setting: under setting [1], 101 to 1000 nM; under setting [2], 155 nM.

On to `CNCCN(C)Cc1c[nH]nc1[C@H]1CCC(C)(C)[C@@H](C(=O)NCCCOC)C1` [Compound 270], for which the IC50 under setting [1] was in the range of 101 to 1000 nM and the IC50 under setting [2] is 204 nM.

Regarding `CNCCN(C)Cc1c[nH]nc1[C@@H]1CCC(C)(C)[C@@H](C(=O)NCCCOC)C1` [Compound 271, (1S,5R)—N-(3-methoxypropyl)-2,2-dimethyl-5-[4-({methyl[2-(methylamino)ethyl]amino}methyl)-1H-pyrazol-3-yl]cyclohexane-1-carboxamide], the IC50 reads like this: under setting [1], less than 100 nM; under setting [2], 100 nM.

With `CNCCN(C)Cc1c[nH]nc1C1CCC(C)(C)[C@H](OCCCOC)C1` (stereo partly drawn) [Compound 272], the IC50 under setting [1] was less than 100 nM and the IC50 under setting [2] stood at 25.8 nM.

As to `CNCCN(C)Cc1c[nH]nc1C1CCC(C)(C)[C@H](OCC2CCOCC2)C1` (stereo partly drawn) [Compound 273, ({3-[(3R)-4,4-dimethyl-3-(oxan-4-ylmethoxy)cyclohexyl]-1H-pyrazol-4-yl}methyl)(methyl)[2-(methylamino)ethyl]amine], the IC50 is less than 100 nM under setting [1] and 22.6 nM under setting [2].

In the case of `CNCCN(C)Cc1ccnn1C1CCC2(CC1)CC(C)(C)CO2` (stereo not drawn) [Compound 274, trifluoroacetate], the IC50 under setting [1] is less than 100 nM and the IC50 under setting [2] came out at 11.9 nM.

For `CNCCN(C)Cc1ccnn1C1CCC2(CCCC2)CC1` [Compound 275, Methyl[2-(methylamino)ethyl][(1-[spiro[4.5]decan-8-yl]-1H-pyrazol-5-yl)methyl]amine trifluoroacetate], the IC50 was less than 100 nM under setting [1] and 10.4 nM under setting [2].

As usually defined, the IC50 is the midpoint of a concentration-inhibition curve.
